Source: patent US20240190849A1, “AMINOPYRIMIDINE COMPOUNDS AND METHODS OF THEIR USE” (TYRA BIOSCIENCES, INC., priority 2021, published 2024)

Columns and labels:
Settings in all cases: FGFR binding data
FGFR2 = molecular target: T1, FGFR2 (Homo sapiens, UniProt P21802); assay: Kinase binding assay (kinase-tagged T7 phage, affinity beads, qPCR readout), FGFR2
T1 construct: made in house; host or cells: E. coli derived from BL21, infected with T7 phage
Description: (§1) Kinase-tagged T7 phage strains were prepared in an E. coli host derived from the BL21 strain. E. coli were grown to log-phase and infected with T7 phage and incubated with shaking at 32° C. until lysis. The lysates were centrifuged and filtered to remove cell debris. Streptavidin-coated magnetic beads were treated with biotinylated small molecule ligands for 30 minutes at room temperature to generate affinity resins for kinase assays. The liganded beads were blocked with excess biotin and washed with blocking buffer SeaBlock (Pierce), 1% BSA, 0.05% Tween 20, 1 mM DTT to remove unbound ligand and to reduce non-specific binding. Binding reactions were assembled by combining kinases, liganded affinity beads, and test compounds in 1× binding buffer (20% SeaBlock, 0.17×PBS, 0.05% Tween 20, 6 mM DTT).
(§2) Test compounds were prepared as 111× stocks in 100% DMSO. Kds were determined using an 11-point 3-fold compound dilution series with three DMSO control points. All compounds for Kd measurements are distributed by acoustic transfer (non-contact dispensing) in 100% DMSO. The compounds were then diluted directly into the assays such that the final concentration of DMSO was 0.9%. All reactions performed in polypropylene 384-well plate. Each was a final volume of 0.02 ml. The assay plates were incubated at room temperature with shaking for 1 hour and the affinity beads were washed with wash buffer (1×PBS, 0.05% Tween 20). The beads were then re-suspended in elution buffer (1×PBS, 0.05% Tween 20, 0.5 μM non-biotinylated affinity ligand) and incubated at room temperature with shaking for 30 minutes. The kinase concentration in the eluates was measured by qPCR.
(§3) Binding constants were calculated with a standard dose-response curve using the Hill equation: […]
(§4) The Hill Slope was set to −1. Curves were fitted using a non-linear least square fit with the Levenberg-Marquardt algorithm.

FGFR1 = molecular target: T2, FGFR1 (Homo sapiens, UniProt P11362); assay: Kinase binding assay (kinase-tagged T7 phage, affinity beads, qPCR readout), FGFR1
T2 construct: made in house; host or cells: E. coli derived from BL21, infected with T7 phage
T2 sequence (P11362 22-822): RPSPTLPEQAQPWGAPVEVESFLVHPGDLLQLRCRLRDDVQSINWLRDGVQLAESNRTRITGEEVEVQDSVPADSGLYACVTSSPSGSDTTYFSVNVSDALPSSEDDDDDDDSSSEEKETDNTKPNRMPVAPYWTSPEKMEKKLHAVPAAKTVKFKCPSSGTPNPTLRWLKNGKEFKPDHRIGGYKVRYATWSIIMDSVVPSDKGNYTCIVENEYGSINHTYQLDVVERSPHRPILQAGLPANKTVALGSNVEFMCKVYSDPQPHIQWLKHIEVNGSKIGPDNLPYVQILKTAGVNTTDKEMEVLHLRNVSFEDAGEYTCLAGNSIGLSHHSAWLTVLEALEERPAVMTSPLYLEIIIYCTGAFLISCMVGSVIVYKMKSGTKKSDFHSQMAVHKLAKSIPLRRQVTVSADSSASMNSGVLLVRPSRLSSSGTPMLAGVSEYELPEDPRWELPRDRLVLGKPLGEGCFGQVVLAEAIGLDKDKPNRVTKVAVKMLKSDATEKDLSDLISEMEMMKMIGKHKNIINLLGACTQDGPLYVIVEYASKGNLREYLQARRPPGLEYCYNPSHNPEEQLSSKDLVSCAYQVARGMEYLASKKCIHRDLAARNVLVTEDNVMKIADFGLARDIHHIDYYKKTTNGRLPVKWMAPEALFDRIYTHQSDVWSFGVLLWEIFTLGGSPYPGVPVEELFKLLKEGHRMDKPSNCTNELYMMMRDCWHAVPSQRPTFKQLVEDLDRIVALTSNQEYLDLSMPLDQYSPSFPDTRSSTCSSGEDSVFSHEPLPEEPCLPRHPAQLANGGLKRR
Description: as §1, §2, §3, §4

FGFR3 = molecular target: T3, FGFR3 (Homo sapiens, UniProt P22607); assay: Kinase binding assay (kinase-tagged T7 phage, affinity beads, qPCR readout), FGFR3
T3 construct: made in house; host or cells: E. coli derived from BL21, infected with T7 phage
T3 sequence (P22607 23-806): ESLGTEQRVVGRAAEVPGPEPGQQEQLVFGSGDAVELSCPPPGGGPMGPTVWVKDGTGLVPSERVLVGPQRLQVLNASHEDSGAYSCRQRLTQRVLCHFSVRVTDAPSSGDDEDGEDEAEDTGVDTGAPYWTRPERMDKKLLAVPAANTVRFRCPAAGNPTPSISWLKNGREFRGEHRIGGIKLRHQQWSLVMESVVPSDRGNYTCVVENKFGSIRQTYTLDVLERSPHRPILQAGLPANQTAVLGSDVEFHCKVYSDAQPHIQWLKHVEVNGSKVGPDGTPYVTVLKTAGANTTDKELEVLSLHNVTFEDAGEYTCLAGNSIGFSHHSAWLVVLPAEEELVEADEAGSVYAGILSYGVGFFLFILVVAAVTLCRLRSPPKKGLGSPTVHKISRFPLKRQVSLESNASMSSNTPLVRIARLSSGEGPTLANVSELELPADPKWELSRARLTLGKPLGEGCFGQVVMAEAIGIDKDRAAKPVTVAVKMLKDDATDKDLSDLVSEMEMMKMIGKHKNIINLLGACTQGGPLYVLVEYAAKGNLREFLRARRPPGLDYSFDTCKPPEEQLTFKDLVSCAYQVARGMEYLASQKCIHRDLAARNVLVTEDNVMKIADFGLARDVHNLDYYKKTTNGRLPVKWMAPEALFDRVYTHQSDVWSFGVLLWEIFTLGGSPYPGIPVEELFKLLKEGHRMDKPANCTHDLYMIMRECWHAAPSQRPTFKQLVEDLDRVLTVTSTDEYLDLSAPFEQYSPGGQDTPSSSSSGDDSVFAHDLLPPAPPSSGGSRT
Description: as §1, §2, §3, §4

FGFR3 (V555M) = molecular target: T4, FGFR3 (V555M) (Homo sapiens, UniProt P22607, V555M); assay: Kinase binding assay (kinase-tagged T7 phage, affinity beads, qPCR readout), FGFR3 (V555M)
T4 construct: made in house; host or cells: E. coli derived from BL21, infected with T7 phage
T4 sequence (P22607 23-806 V555M): as the sequence (P22607 23-806) above, with V533M counted along it
Description: as §1, §2, §3, §4

T1 sequence (P21802 22-821): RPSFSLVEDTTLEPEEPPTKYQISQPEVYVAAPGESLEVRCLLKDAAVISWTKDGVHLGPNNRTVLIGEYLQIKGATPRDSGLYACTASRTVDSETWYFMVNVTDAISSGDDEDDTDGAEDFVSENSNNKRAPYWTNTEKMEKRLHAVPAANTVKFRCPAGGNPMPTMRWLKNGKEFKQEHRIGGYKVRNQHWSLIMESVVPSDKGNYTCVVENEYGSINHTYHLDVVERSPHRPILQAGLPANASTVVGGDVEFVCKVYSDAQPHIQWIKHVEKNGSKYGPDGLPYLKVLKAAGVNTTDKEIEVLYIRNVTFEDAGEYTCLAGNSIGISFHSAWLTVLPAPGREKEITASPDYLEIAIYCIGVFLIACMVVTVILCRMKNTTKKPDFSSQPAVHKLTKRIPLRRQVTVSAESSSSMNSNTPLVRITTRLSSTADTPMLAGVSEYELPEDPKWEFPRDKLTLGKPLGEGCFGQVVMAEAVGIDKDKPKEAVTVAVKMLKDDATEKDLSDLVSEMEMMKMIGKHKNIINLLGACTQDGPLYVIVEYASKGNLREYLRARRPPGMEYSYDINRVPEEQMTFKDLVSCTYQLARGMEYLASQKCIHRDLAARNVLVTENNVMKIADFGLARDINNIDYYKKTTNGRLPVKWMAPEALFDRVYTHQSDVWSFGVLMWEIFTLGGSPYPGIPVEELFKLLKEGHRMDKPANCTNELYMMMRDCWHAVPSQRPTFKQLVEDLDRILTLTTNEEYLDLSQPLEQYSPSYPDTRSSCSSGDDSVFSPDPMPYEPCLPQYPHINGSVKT

Row | Kd (FGFR2) [nM] | Kd (FGFR1) [nM] | Kd (FGFR3) [nM] | Kd (FGFR3 (V555M)) [nM] | Compound
1 | 0.1 to 100 | 0.1 to 100 | 0.1 to 100 | 0.1 to 100 | C=CC(=O)Nc1ccc2c(c1)c(C)cn2-c1nc(Nc2cnn(C[C@@H](C)O)c2C)ncc1F [Example 216, N-[1-[5-fluoro-2-[[1-[(2R)-2-hydroxypropyl]-5-methyl-pyrazol-4-yl]amino]pyrimidin-4-yl]-3-methyl-indol-5-yl]prop-2-enamide]
2 | 250 to 1000 | > 1000 | > 1000 | 250 to 1000 | CC#CC(=O)Nc1ccc2c(c1)c(C)cn2-c1nc(Nc2ccnn2C)ncc1C [Example 130, N-[3-methyl-1-[5-methyl-2-[(2-methylpyrazol-3-yl)amino]pyrimidin-4-yl]indol-5-yl]but-2-ynamide]
3 | > 1000 | > 1000 | > 1000 | > 1000 | C=C(C)C(=O)Nc1cnc2c(c1)c(C)cn2-c1nc(Nc2ccn(C)n2)ncc1C [Example 118, 2-methyl-N-[3-methyl-1-[5-methyl-2-[(1-methylpyrazol-3-yl)amino]pyrimidin-4-yl]pyrrolo[2,3-b]pyridin-5-yl]prop-2-enamide]
4 | > 1000 | > 1000 | > 1000 | > 1000 | CC#CC(=O)Nc1ccc2c(c1)c(C)cn2-c1nc(Nc2ccnn2C)ncc1F [Example 139, N-[1-[5-fluoro-2-[(2-methylpyrazol-3-yl)amino]pyrimidin-4-yl]-3-methyl-indol-5-yl]but-2-ynamide]
5 | 0.1 to 100 | 0.1 to 100 | 0.1 to 100 | 0.1 to 100 | C#CC(=O)Nc1cnc2c(c1)c(C)cn2-c1nc(Nc2ccnn2C)ncc1C [Example 132, N-[3-methyl-1-[5-methyl-2-[(2-methylpyrazol-3-yl)amino]pyrimidin-4-yl]pyrrolo[2,3-b]pyridin-5-yl]prop-2-ynamide]
6 | 0.1 to 100 | 0.1 to 100 | 0.1 to 100 | 0.1 to 100 | C=CC(=O)Nc1ccc2c(c1)c(C)c(C)n2-c1nc(Nc2cnn(C)c2)ncc1F [Example 226, N-[1-[5-fluoro-2-[(1-methylpyrazol-4-yl)amino]pyrimidin-4-yl]-2,3-dimethyl-indol-5-yl]prop-2-enamide]
7 | 0.1 to 100 | 250 to 1000 | 0.1 to 100 | 0.1 to 100 | C=CC(=O)Nc1ccc2c(-c3nc(Nc4cc(C)nn4C)ncc3Cl)cn(C)c2c1 [Example 63, N-[3-[5-chloro-2-[(2,5-dimethylpyrazol-3-yl)amino]-pyrimidin-4-yl]-1-methyl-indol-6-yl]prop-2-enamide]
8 | > 1000 | > 1000 | > 1000 | > 1000 | C=CC(=O)N(C)c1ccc2c(c1)c(C)cn2-c1nc(Nc2ccnn2C)ncc1C [Example 151, N-methyl-N-[3-methyl-1-[5-methyl-2-[(2-methylpyrazol-3-yl)amino]pyrimidin-4-yl]indol-5-yl]prop-2-enamide]
9 | 250 to 1000 | 250 to 1000 | 100 to 250 | 100 to 250 | C=CC(=O)Nc1ccc2c(c1)c(C)cn2-c1cc(Nc2cn(C)nc2C)ncc1C [Example 224, N-[1-[2-[(1,3-dimethylpyrazol-4-yl)amino]-5-methyl-4-pyridyl]-3-methyl-indol-5-yl]prop-2-enamide]
10 | 0.1 to 100 | 0.1 to 100 | 0.1 to 100 | > 1000 | C=CC(=O)Nc1ccc2c(c1)c1ccccc1n2-c1nc(Nc2cnn(C)c2)ncc1F [Example 228, N-[9-[5-fluoro-2-[(1-methylpyrazol-4-yl)amino]pyrimidin-4-yl]carbazol-3-yl]prop-2-enamide]
11 | > 1000 | > 1000 | > 1000 | 100 to 250 | C=CC(=O)Nc1cc2c(C)cn(-c3nc(Nc4ccc(N5CCOCC5)cc4)ncc3Cl)c2cc1C [Example 60, N-[1-[5-chloro-2-(4-morpholinoanilino)-pyrimidin-4-yl]-3,6-dimethyl-indol-5-yl]prop-2-enamide]
12 | > 1000 | > 1000 | > 1000 | > 1000 | CC#CC(=O)Nc1cnc2c(c1)c(C)cn2-c1nc(Nc2ccnn2C)ncc1C [Example 131, N-[3-methyl-1-[5-methyl-2-[(2-methylpyrazol-3-yl)amino]pyrimidin-4-yl]pyrrolo[2,3-b]pyridin-5-yl]but-2-ynamide]
13 | > 1000 | > 1000 | > 1000 | > 1000 | C=CC(=O)Nc1ccc2c(-c3ccnc(Nc4cc(C)[nH]n4)n3)cn(C)c2c1 [Example 111, N-[1-methyl-3-[2-[(5-methyl-1H-pyrazol-3-yl)amino]pyrimidin-4-yl]indol-6-yl]prop-2-enamide]
14 | 0.1 to 100 | 0.1 to 100 | 0.1 to 100 | 0.1 to 100 | C=CC(=O)Nc1ccc2c(c1)c(C)cn2-c1cc(Nc2cnn(C)c2)ncc1C [Example 223, N-[3-methyl-1-[5-methyl-2-[(1-methylpyrazol-4-yl)amino]-4-pyridyl]indol-5-yl]prop-2-enamide]

The next lines start with the molecule.

Row | Compound | Kd (FGFR2) [nM] | Kd (FGFR1) [nM] | Kd (FGFR3) [nM] | Kd (FGFR3 (V555M)) [nM]
15 | C=CC(=O)Nc1ccc2c(ccn2-c2nc(Nc3ccccc3OCCN3CCOCC3)ncc2Cl)c1 [Example 13, N-[1-[5-chloro-2-[2-(2-morpholinoethoxy)anilino]pyrimidin-4-yl]indol-5-yl]prop-2-enamide] | > 1000 | > 1000 | > 1000 | > 1000
16 | C=CC(=O)Nc1ccc2c(-c3ccnc(Nc4ccn(CCO)n4)n3)cn(C)c2c1 [Example 101, N-[3-[2-[[1-(2-hydroxyethyl)pyrazol-3-yl]amino]pyrimidin-4-yl]-1-methyl-indol-6-yl]prop-2-enamide] | 250 to 1000 | 100 to 250 | 0.1 to 100 | 100 to 250
17 | C=CC(=O)Nc1ccc2c(-c3ccnc(Nc4cn(CC(F)F)nc4C)n3)cn(C)c2c1 [Example 170, N-[3-[2-[[1-(2,2-difluoroethyl)-3-methyl-pyrazol-4-yl]amino]pyrimidin-4-yl]-1-methyl-indol-6-yl]prop-2-enamide] | 0.1 to 100 | 100 to 250 | 0.1 to 100 | 0.1 to 100
18 | C=CC(=O)Nc1ccc2c(ccn2-c2nc(Nc3ccc(OCCN4CCOCC4)cc3)ncc2Cl)c1C [Example 21, N-[1-[5-chloro-2-[4-(2-morpholinoethoxy)anilino]pyrimidin-4-yl]-4-methyl-indol-5-yl]prop-2-enamide] | 0.1 to 100 | 250 to 1000 | 100 to 250 | 0.1 to 100
19 | C=CC(=O)Nc1ccc2c(ccn2-c2nc(Nc3ccc(N4CCOCC4)cc3)ncc2Cl)c1 [Example 15, N-[1-[5-chloro-2-(4-morpholinoanilino)pyrimidin-4-yl]indol-5-yl]prop-2-enamide] | 0.1 to 100 | 100 to 250 | 0.1 to 100 | 0.1 to 100
20 | CCn1cc(Nc2ncc(F)c(-n3cc(C)c4cc(NC(=O)/C=C/CN(C)C)cnc43)n2)c(C)n1 [Example 171, (E)-4-(dimethylamino)-N-[1-[2-[(1-ethyl-3-methyl-pyrazol-4-yl)amino]-5-fluoro-pyrimidin-4-yl]-3-methyl-pyrrolo[2,3-b]pyridin-5-yl]but-2-enamide] | 100 to 250 | 100 to 250 | 0.1 to 100 | 100 to 250
21 | C#CC(=O)Nc1ccc2c(-c3nc(Nc4cnn(CCO)c4)ncc3F)cn(C)c2c1 [Example 142, N-[3-[5-fluoro-2-[[1-(2-hydroxyethyl)pyrazol-4-yl]amino]pyrimidin-4-yl]-1-methyl-indol-6-yl]prop-2-ynamide] | 0.1 to 100 | 0.1 to 100 | 0.1 to 100 | 0.1 to 100
22 | Cc1cn(-c2nc(Nc3cnn(C[C@@H](C)O)c3)ncc2F)c2ncc(NC(=O)/C=C/CN3CCOCC3)cc12 [Example 197, (E)-N-[1-[5-fluoro-2-[[1-[(2R)-2-hydroxypropyl]pyrazol-4-yl]amino]pyrimidin-4-yl]-3-methyl-pyrrolo[2,3-b]pyridin-5-yl]-4-morpholino-but-2-enamide] | 250 to 1000 | 250 to 1000 | 100 to 250 | 250 to 1000
23 | Cc1cn(-c2nc(Nc3cnn(C[C@@H](C)O)c3)ncc2F)c2ncc(NC(=O)/C=C/CN(C)C)cc12 [Example 191, (E)-4-(dimethylamino)-N-[1-[5-fluoro-2-[[1-[(2R)-2-hydroxypropyl]pyrazol-4-yl]amino]pyrimidin-4-yl]-3-methyl-pyrrolo[2,3-b]pyridin-5-yl]but-2-enamide] | 0.1 to 100 | 0.1 to 100 | 0.1 to 100 | 0.1 to 100
24 | C=CC(=O)Nc1ccc2c(-c3ccnc(Nc4cnn(CC(F)(F)F)c4)n3)cn(C)c2c1 [Example 168, N-[1-methyl-3-[2-[[1-(2,2,2-trifluoroethyl)pyrazol-4-yl]amino]pyrimidin-4-yl]indol-6-yl]prop-2-enamide] | 0.1 to 100 | 0.1 to 100 | 0.1 to 100 | 0.1 to 100
